Assay results: PubChem BioAssay AID330 (DTP/NCI, 2004)
Values joined by “and” are separate entries in the source; they are usually repeats but may differ in a detail not shown here. Equal entries are not always repeated. Toxic doses and inconclusive results are not listed. Rule for the calls: active = survival T/C of 150% or more; inactive = T/C below 125% in these data.

System: P388 leukemia ip, CD2F1 mice, survival T/C
Assay: NCI In Vivo Anticancer Drug Screen. Data for tumor model P388 Leukemia (intraperitoneal) in CD2F1 (CDF1) mice
Conditions: endpoint: median survival time, higher = longer survival
In short: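 Mice carrying the transplanted tumor received test compound or vehicle. Survival was recorded in each group, and the value is the treated-group measurement divided by that of the vehicle-treated control group.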

[1] = dose: 50.0 mg/kg/injection, schedule: Q01DX005 (ip), vehicle: Klucel (hydroxypropylcellulose) (HPC)
[2] = dose: 100.0 mg/kg/injection, schedule: Q01DX005 (ip), vehicle: Klucel (hydroxypropylcellulose) (HPC)
[3] = dose: 200.0 mg/kg/injection, schedule: Q01DX005 (ip), vehicle: Klucel (hydroxypropylcellulose) (HPC)
[4] = dose: 50.0 mg/kg/injection, schedule: Q01DX009 (ip), vehicle: Klucel (hydroxypropylcellulose) (HPC)
[5] = dose: 100.0 mg/kg/injection, schedule: Q01DX009 (ip), vehicle: Klucel (hydroxypropylcellulose) (HPC)
[6] = dose: 200.0 mg/kg/injection, schedule: Q01DX009 (ip), vehicle: Klucel (hydroxypropylcellulose) (HPC)
[7] = dose: 60.0 mg/kg/injection, schedule: Q01DX005 (ip), vehicle: saline with Tween-80
[8] = dose: 120.0 mg/kg/injection, schedule: Q01DX005 (ip), vehicle: saline with Tween-80
[9] = dose: 240.0 mg/kg/injection, schedule: Q01DX005 (ip), vehicle: saline with Tween-80
[10] = dose: 100.0 mg/kg/injection, schedule: Q01DX009 (ip), vehicle: saline with Tween-80
[11] = dose: 200.0 mg/kg/injection, schedule: Q01DX009 (ip), vehicle: saline with Tween-80
[12] = dose: 400.0 mg/kg/injection, schedule: Q01DX009 (ip), vehicle: saline with Tween-80
[13] = dose: 50.0 mg/kg/injection, schedule: Q01DX009 (ip), vehicle: saline with Tween-80
[14] = dose: 50.0 mg/kg/injection, schedule: Q01DX005 (ip), vehicle: saline with Tween-80
[15] = dose: 100.0 mg/kg/injection, schedule: Q01DX005 (ip), vehicle: saline with Tween-80
[16] = dose: 200.0 mg/kg/injection, schedule: Q01DX005 (ip), vehicle: saline with Tween-80
[17] = dose: 100.0 mg/kg/injection, schedule: Q01DX001 (ip), vehicle: saline with Tween-80
[18] = dose: 200.0 mg/kg/injection, schedule: Q01DX001 (ip), vehicle: saline with Tween-80
[19] = dose: 50.0 mg/kg/injection, schedule: Q01DX005 (ip), vehicle: saline
[20] = dose: 100.0 mg/kg/injection, schedule: Q01DX005 (ip), vehicle: saline
[21] = dose: 200.0 mg/kg/injection, schedule: Q01DX005 (ip), vehicle: saline

Measured: T/C

CCN(CC)CCOC(=O)C(C)c1cccc2c(=O)cc(-c3ccccc3)oc12 (stereo not drawn)
inactive: [1] 90 % of control | [2] 101 % of control | [3] 101 % of control

Cc1ccc(S(=O)(=O)OCOS(=O)(=O)c2ccc(C)cc2)cc1
inactive: dose: 25.0 mg/kg/injection, schedule: Q01DX009 (ip), vehicle: Klucel (hydroxypropylcellulose) (HPC) 101 % of control | [4] 120 % of control and 121 % of control | [5] 122 % of control | [6] 123 % of control
active: dose: 400.0 mg/kg/injection, schedule: Q01DX009 (ip), vehicle: Klucel (hydroxypropylcellulose) (HPC) 160 % of control

CCCNc1cc(C)cc2[nH]c(C)nc12
inactive: dose: 25.0 mg/kg/injection, schedule: Q01DX005 (ip), vehicle: Klucel (hydroxypropylcellulose) (HPC) 103 % of control | [1] 100 % of control | [2] 103 % of control | [3] 94 % of control

O=C(N1CCN(C(=O)S(=O)(=O)c2ccccc2)CC1)S(=O)(=O)c1ccccc1
inactive: [4] 92 % of control | [5] 100 % of control | [6] 100 % of control

c1ccc(Cc2csc3nc4ccccc4n23)cc1
inactive: [7] 100 % of control | [8] 109 % of control | [9] 99 % of control

C=CN=NNc1cc(OC)ccc1OC
inactive: dose: 100.0 mg/kg/injection, schedule: Q04DX003 (ip), vehicle: saline + Tween-80 + alcohol 105 % of control | dose: 200.0 mg/kg/injection, schedule: Q04DX003 (ip), vehicle: saline + Tween-80 + alcohol 103 % of control | dose: 400.0 mg/kg/injection, schedule: Q04DX003 (ip), vehicle: saline + Tween-80 + alcohol 102 % of control

O=C(O)CC(Cc1ncnc2c1ncn2C1OC(CO)C(O)C1O)C(=O)O (stereo not drawn)
inactive: dose: 100.0 mg/kg/injection, schedule: Q04DX003 (ip), vehicle: saline 100 % of control | dose: 200.0 mg/kg/injection, schedule: Q04DX003 (ip), vehicle: saline 99 % of control | dose: 400.0 mg/kg/injection, schedule: Q04DX003 (ip), vehicle: saline 99 % of control

COc1cc(CCC(C)=O)ccc1OC(=O)c1c(-c2c(F)cccc2Cl)noc1C
inactive: [1] 91 % of control | [2] 91 % of control | [3] 91 % of control

CN(C)CCCC[N+](C)(C)Cc1ccc(C[N+](C)(C)CCCC[N+](C)(C)Cc2ccc(CCl)cc2)cc1
inactive: dose: 3.12 mg/kg/injection, schedule: Q04DX003 (ip), vehicle: saline 100 % of control | dose: 6.25 mg/kg/injection, schedule: Q04DX003 (ip), vehicle: saline 94 % of control | dose: 12.5 mg/kg/injection, schedule: Q04DX003 (ip), vehicle: saline 100 % of control and 111 % of control and 96 % of control | dose: 25.0 mg/kg/injection, schedule: Q04DX003 (ip), vehicle: saline 100 % of control and 113 % of control

O=C(Nc1ccc(C2=NCCN2)cc1)C1CCC(C(=O)Nc2ccc(C3=NCCN3)cc2)CC1 (stereo not drawn)
inactive: [12] 118 % of control
active: [10] 227 % of control | dose: 100.0 mg/kg/injection, schedule: Q04DX003 (ip), vehicle: saline with Tween-80 154 % of control | [11] 209 % of control | dose: 200.0 mg/kg/injection, schedule: Q04DX003 (ip), vehicle: saline with Tween-80 186 % of control | dose: 264.0 mg/kg/injection, schedule: Q04DX003 (ip), vehicle: saline with Tween-80 213 % of control | dose: 400.0 mg/kg/injection, schedule: Q04DX003 (ip), vehicle: saline with Tween-80 231 % of control and 254 % of control | dose: 600.0 mg/kg/injection, schedule: Q04DX003 (ip), vehicle: saline with Tween-80 236 % of control

CCCCCCCCCCCCCCCCS(=O)(=O)N/N=C(/C)N(C)c1ccc(OC)cc1
inactive: [4] 107 % of control | [5] 107 % of control | [6] 111 % of control

COc1ccc(C(=O)C(CN2CCCC2)CN2CCCC2)cc1
inactive: dose: 7.5 mg/kg/injection, schedule: Q01DX005 (ip), vehicle: saline 111 % of control | dose: 7.5 mg/kg/injection, schedule: Q01DX009 (ip), vehicle: saline 112 % of control | dose: 15.0 mg/kg/injection, schedule: Q01DX004 (ip), vehicle: saline 122 % of control | dose: 15.0 mg/kg/injection, schedule: Q01DX005 (ip), vehicle: saline 121 % of control | dose: 15.0 mg/kg/injection, schedule: Q01DX009 (ip), vehicle: saline 123 % of control | dose: 30.0 mg/kg/injection, schedule: Q01DX004 (ip), vehicle: saline 115 % of control | dose: 60.0 mg/kg/injection, schedule: Q01DX004 (ip), vehicle: saline 108 % of control

CNC(=O)N(C)CN(C)C(=O)NC
inactive: [4] 100 % of control | [5] 106 % of control | [6] 107 % of control

CCN(CC)CCOC(=O)/C=C\c1cccc2c(=O)cc(-c3ccccc3)oc12
inactive: dose: 50.0 mg/kg/injection, schedule: Q01DX009 (ip), vehicle: saline 100 % of control | dose: 100.0 mg/kg/injection, schedule: Q01DX009 (ip), vehicle: saline 101 % of control | dose: 200.0 mg/kg/injection, schedule: Q01DX009 (ip), vehicle: saline 117 % of control

Brc1cc2ccccc2c2ccccc12
inactive: [13] 99 % of control | [10] 99 % of control | [11] 93 % of control | [12] 93 % of control

COc1ccccc1NC(=O)c1cc2cc(Br)ccc2cc1O
inactive: [7] 100 % of control | [8] 102 % of control | [9] 108 % of control

CCC(=O)c1ccc(OCC(O)COc2c3ccccc3nc3ccccc23)cc1 (stereo not drawn)
inactive: [14] 87 % of control | [15] 90 % of control | [16] 92 % of control

COC(=O)/C=C(\O)C(Cc1cc(OC)c2c(c1O)C(=O)c1c(OC)cccc1C2=O)C(=O)OC (stereo not drawn)
inactive: [17] 101 % of control | [18] 102 % of control | dose: 400.0 mg/kg/injection, schedule: Q01DX001 (ip), vehicle: saline with Tween-80 97 % of control

C=CC1CCC[S+]1CC(=O)C(Cl)(Cl)Cl (stereo not drawn)
inactive: [17] 102 % of control | [18] 109 % of control

CC1OC(n2cc(F)c(=O)[nH]c2=O)CC1O (stereo not drawn)
inactive: dose: 50.0 mg/kg/injection, schedule: Q01DX001 (ip), vehicle: saline 104 % of control | dose: 100.0 mg/kg/injection, schedule: Q01DX001 (ip), vehicle: saline 106 % of control | dose: 200.0 mg/kg/injection, schedule: Q01DX001 (ip), vehicle: saline 105 % of control

Cc1cccnc1NCc1ccccn1
inactive: [14] 103 % of control | [15] 100 % of control | [16] 93 % of control

BrC/C(=N\N=C(\CBr)c1ccc(Br)cc1)c1ccc(Br)cc1
inactive: [4] 100 % of control | [5] 100 % of control | [6] 91 % of control

COc1cc([C@@H]2c3cc4c(cc3[C@H](O)[C@@H](CO)[C@@H]2C(=O)O)OCO4)cc(OC)c1OC
inactive: [19] 90 % of control | [20] 94 % of control | [21] 93 % of control

Nc1nc(N)c2c(n1)CCCC2
inactive: dose: 6.25 mg/kg/injection, schedule: Q04DX003 (ip), vehicle: saline with Tween-80 105 % of control | dose: 12.5 mg/kg/injection, schedule: Q04DX003 (ip), vehicle: saline with Tween-80 100 % of control | dose: 25.0 mg/kg/injection, schedule: Q04DX003 (ip), vehicle: saline with Tween-80 100 % of control

O=[N+]([O-])c1nc2ccccc2[nH]1
inactive: dose: 6.25 mg/kg/injection, schedule: Q01DX009 (ip), vehicle: saline with Tween-80 101 % of control | dose: 12.5 mg/kg/injection, schedule: Q01DX009 (ip), vehicle: saline with Tween-80 101 % of control | dose: 25.0 mg/kg/injection, schedule: Q01DX009 (ip), vehicle: saline with Tween-80 111 % of control | [13] 108 % of control

CCCCCCCCCCCC(=O)OCCN(CCOC(=O)CCCCCCCCCCC)C(=O)c1ccccc1
inactive: [13] 95 % of control | [10] 100 % of control | [11] 93 % of control

O=S(=O)(O)CCCOC1COc2ccccc2OCCOCCOc2ccccc2OC1
inactive: [19] 99 % of control | [20] 101 % of control | [21] 98 % of control

O=c1c(Cl)c2oc3cc([N+](=O)[O-])ccc3nc-2c(Cl)c1Cl
inactive: [4] 107 % of control | [5] 99 % of control | [6] 91 % of control
